Reference: ChEMBL document CHEMBL1914333, “Synthesis and evaluation of compounds that induce readthrough of premature termination codons” (Bioorg Med Chem Lett, 2011)
Calls of active or inactive are those of the source. The rule behind the calls is not given here.

What was measured:
[1] = molecular target: T1, 80S Ribosome (Homo sapiens) (UniProt P08865+P42677+P62753+P15880+P23396+P61247+P62701+P22090+P46782+P62081+P62241+P46781+P46783+P62280+P25398+P62277+P62263+P62841+P62244+P62249+P08708+P62269+P39019+P60866+P63220+P62266+P62847+P62851+P62854+P62979+P62857+P62273+P62861+P39023+P36578+P46777+Q02878+P18124+P62424+P62917+P32969+P27635+P62906+P62913+P30050+P26373+P40429+P50914+P61313+P18621+Q07020+Q02543+P84098+P46778+P35268+P62829+P62750+P83731+P61254+P61353+P46776+P46779+P47914+P62888+P62899+P62910+P49207+P42766+P18077+Q9Y3U8+P83881+P61927+P61513+P63173+P62891+P62945+P05388+P05386); test: Induction of ribosome to readthrough in human A-T lymphoblastoid cells assessed as ATM ser1981 autophosphorylation at 30 uM after 4 days by PTT-ELISA assay; format: subcellular
[2] = molecular target: T1, 80S Ribosome (Homo sapiens); test: Induction of ribosome to readthrough in human A-T lymphoblastoid cells assessed as irradiation-induced ATM Ser1981 nuclear foci formation at 30 uM after 4 days by PTT-ELISA; format: subcellular

SMILES | Flu intensity [1] | Activity [2]
O=c1ccn(Cc2ccc(-c3cccc(Cl)c3)o2)c(=O)[nH]1 | 5.07 | 11.3%
N=C1NC(=O)/C(=C/c2ccc(-c3ccccc3[N+](=O)[O-])o2)S1 | 3.27 | –
N=C1NC(=O)/C(=C/c2c[nH]c3ccccc23)S1 | inactive | –
N=C1NC(=O)/C(=C/c2c[nH]c(=O)[nH]c2=O)S1 | 5.32 | 17%
O=C1NC(=S)S/C1=C\c1ccc(-c2ccccc2[N+](=O)[O-])o1 | inactive | –
N=C1NC(=O)/C(=C/c2cc3ccccc3o2)S1 | inactive | –
Cc1cn(Cc2ccc(-c3ccccc3F)o2)c(=O)[nH]c1=O | 6.16 | 9.6%
N=C1NC(=O)/C(=C/c2ccc(-c3ccccc3)o2)S1 | inactive | –
COc1ccccc1-c1ccc(/C=C2\SC(=S)NC2=O)o1 | inactive | –
N=C1NC(=O)/C(=C/c2ccc(-c3ccccc3C(F)(F)F)o2)S1 | inactive | –
Cc1cn(Cc2ccc(-c3ccccc3[N+](=O)[O-])o2)c(=O)[nH]c1=O | inactive | inactive
O=C1NC(=S)S/C1=C\c1ccc(-c2ccccc2Cl)o1 | 3.55 | –
CN1C(=N)S/C(=C\c2ccc(-c3ccccc3[N+](=O)[O-])o2)C1=O | inactive | –
COc1cccc(-c2ccc(/C=C3\SC(=N)NC3=O)o2)c1 | 1.9 | –
N=C1NC(=O)/C(=C/c2cc3ccccc3[nH]2)S1 | inactive | –
N=C1NC(=O)/C(=C/c2ccc(-c3cccc(F)c3)o2)S1 | inactive | –
Cc1cn(Cc2ccc(-c3ccccc3)o2)c(=O)[nH]c1=O | 3.8 | 22.8%
COc1ccccc1-c1ccc(/C=C2\SC(=N)NC2=O)o1 | inactive | –
N=C1NC(=O)/C(=C/c2ccc(-c3ccccc3Cl)o2)S1 | inactive | –
O=c1ccn(Cc2ccc(-c3ccccc3)o2)c(=O)[nH]1 | 3.42 | 9.4%
N=C1NC(=O)/C(=C/c2ccc(-c3ccccc3F)o2)S1 | inactive | –

SMILES | Flu intensity [1] | Activity [2]
N=C1NC(=O)/C(=C/c2ccco2)S1 | inactive | –
O=C1NC(=S)S/C1=C\c1cc2ccccc2o1 | 3.5 | –
O=C1NC(=S)S/C1=C\c1ccc(-c2cccc(F)c2)o1 | 3.44 | –
N=C1NC(=O)/C(=C/c2ccc(-c3cccc(Cl)c3)o2)S1 | 2.27 | –
COc1cccc(-c2ccc(/C=C3\SC(=S)NC3=O)o2)c1 | 2.66 | –
N=C1NC(=O)/C(=C/c2ccc(-c3ccccn3)o2)S1 | inactive | –
N=C1NC(=O)/C(=C/c2cn(Cc3ccc(-c4ccccc4[N+](=O)[O-])o3)c(=O)[nH]c2=O)S1 | 2.42 | 18%
O=C1NC(=S)S/C1=C\c1cc2ccccc2[nH]1 | inactive | –
O=c1ccn(Cc2ccc(-c3ccccc3F)o2)c(=O)[nH]1 | 5.43 | 20%
N=C1NC(=O)/C(=C/c2ccc(-c3ccccc3)s2)S1 | inactive | –
O=C1NC(=S)S/C1=C\c1ccc(-c2ccccn2)o1 | inactive | –
O=C1NC(=S)S/C1=C\c1ccc(-c2ccccc2C(F)(F)F)o1 | inactive | –
Nc1nc(=O)n(Cc2ccc(-c3ccccc3[N+](=O)[O-])o2)cc1F | inactive | inactive
O=C1NC(=S)S/C1=C\c1ccc(-c2ccccc2F)o1 | 2.86 | –
O=C1NC(=S)S/C1=C\c1ccc(-c2cccc(Cl)c2)o1 | 2.86 | –
O=C1NC(=S)S/C1=C\c1c[nH]c2ccccc12 | inactive | –
O=c1ccn(Cc2ccc(-c3ccccc3[N+](=O)[O-])o2)c(=O)[nH]1 | 4.94 | 10.7%
O=c1[nH]c(=O)n(Cc2ccc(-c3ccccc3[N+](=O)[O-])o2)cc1F | 2.08 | 14.5%
O=Cc1cn(Cc2ccc(-c3ccccc3[N+](=O)[O-])o2)c(=O)[nH]c1=O | 2.24 | 16%
Nc1ccn(Cc2ccc(-c3ccccc3[N+](=O)[O-])o2)c(=O)n1 | inactive | inactive
